In patent publication US10058533B2, “Pharmaceutical composition containing Ginkgolide B and Xa factor inhibitor, preparation method thereof and use thereof” (CHENGDU BAIYU PHARMACEUTICAL CO., LTD, priority 2014, dated 2018):

These compounds were tested on factor Xa (assay: Plasma anti-factor Xa activity, rabbit wound-limb deep venous thrombosis forming model). Details: 0.5 h-4 h after administration.
Type: in vivo
Description: (§1) Eight were taken as control group and the rest were treated by a striking device. Striking area was a round surface with the diameter of 1.5 cm, the wounding energy was calculated according to Ep=mgh, and the energy of each striking of the iron rod is 7.5 J.
(§2) Specifically: the rabbit was anesthetized by intravenous injection of 3% pentobarbital sodium at ear edge with the dose of 1 ml/kg. The rabbit was kept laying down at right side prostrate position and the left thigh was set on the striking platform. Found the trochanter of the left femur and set the striking head attached to area from the trochanter to the 1.5 cm below. The self-made striking device was used for striking the outer side of the thigh near-end, and the plaster was used for fixing the left limb on the hip/knee-bending area. When the plaster bandage was applied and the right hip was examined to move freely, the rabbit was kept to lay down until solidification. After the model establishment, the animal was allowed to drink water normally and was fed with granular food. No anticoagulant or antibiotic was used.
(§3) Animals were grouped after modeling. The drug was fed according to table 4 via oral gavage, once a day for 7 days continuously.
(§4) At 0.5, 1.0, 2.0, 3.0 and 4.0 h after the first administration, blood was taken from ear central artery. Plasma was separated and aPPT, PT and the anti-factor Xa activity were determined on an automatic coagulation detector.

| Structure (SMILES) | anti-factor Xa activity |
| --- | --- |
| CC1C(=O)OC2C(O)C34C5CC(C(C)(C)C)C36C(OC(=O)C6O)OC4(C(=O)O5)C12O (stereo not shown) [Ginkgolide B] | increased with time |
| O=C(NC[C@H]1CN(c2ccc(N3CCOCC3=O)cc2)C(=O)O1)c1ccc(Cl)s1 [Rivaroxaban] | extremely significant difference |

Same assay, conditions: plasma, 5 mg/kg i.g., 0.5 h after administration, x ± SD

| Structure (SMILES) | anti-factor Xa activity [IU/ml] |
| --- | --- |
| CC1C(=O)OC2C(O)C34C5CC(C(C)(C)C)C36C(OC(=O)C6O)OC4(C(=O)O5)C12O (stereo not shown) [Ginkgolide B] | 0.08 ± 0.07 |
| O=C(NC[C@H]1CN(c2ccc(N3CCOCC3=O)cc2)C(=O)O1)c1ccc(Cl)s1 [Rivaroxaban] | 0.37 ± 0.09 |

Same assay, conditions: plasma, 5 mg/kg i.g., 1 h after administration, x ± SD

| Structure (SMILES) | anti-factor Xa activity [IU/ml] |
| --- | --- |
| CC1C(=O)OC2C(O)C34C5CC(C(C)(C)C)C36C(OC(=O)C6O)OC4(C(=O)O5)C12O (stereo not shown) [Ginkgolide B] | 0.10 ± 0.10 |
| O=C(NC[C@H]1CN(c2ccc(N3CCOCC3=O)cc2)C(=O)O1)c1ccc(Cl)s1 [Rivaroxaban] | 0.31 ± 0.13 |

Same assay, conditions: plasma, 5 mg/kg i.g., 2 h after administration, x ± SD

| Structure (SMILES) | anti-factor Xa activity [IU/ml] |
| --- | --- |
| CC1C(=O)OC2C(O)C34C5CC(C(C)(C)C)C36C(OC(=O)C6O)OC4(C(=O)O5)C12O (stereo not shown) [Ginkgolide B] | 0.35 ± 0.22 |
| O=C(NC[C@H]1CN(c2ccc(N3CCOCC3=O)cc2)C(=O)O1)c1ccc(Cl)s1 [Rivaroxaban] | 0.18 ± 0.05 |

Same assay, conditions: plasma, 5 mg/kg i.g., 3 h after administration, x ± SD

| Structure (SMILES) | anti-factor Xa activity [IU/ml] |
| --- | --- |
| CC1C(=O)OC2C(O)C34C5CC(C(C)(C)C)C36C(OC(=O)C6O)OC4(C(=O)O5)C12O (stereo not shown) [Ginkgolide B] | 0.74 ± 0.15 |
| O=C(NC[C@H]1CN(c2ccc(N3CCOCC3=O)cc2)C(=O)O1)c1ccc(Cl)s1 [Rivaroxaban] | 1.32 ± 0.16 |

Same assay, conditions: plasma, 5 mg/kg i.g., 4 h after administration, x ± SD

| Structure (SMILES) | anti-factor Xa activity [IU/ml] |
| --- | --- |
| CC1C(=O)OC2C(O)C34C5CC(C(C)(C)C)C36C(OC(=O)C6O)OC4(C(=O)O5)C12O (stereo not shown) [Ginkgolide B] | 0.65 ± 0.12 |
| O=C(NC[C@H]1CN(c2ccc(N3CCOCC3=O)cc2)C(=O)O1)c1ccc(Cl)s1 [Rivaroxaban] | 1.38 ± 0.18 |

What follows are compounds tested on factor Xa (assay: Anti-coagulation factor Xa activity in vitro (chromogenic substrate assay)). Details: not given.
Type: biochemical, rabbit
Description: A chromogenic substrate assay was adopted, and plasma anti-Xa activity was determined on a microplate reader according to a kit specification and reference documents.

| Structure (SMILES) | anti-factor Xa activity [IU/ml] |
| --- | --- |
| CC1C(=O)OC2C(O)C34C5CC(C(C)(C)C)C36C(OC(=O)C6O)OC4(C(=O)O5)C12O (stereo not shown) [Ginkgolide B] | 0.57 |
| O=C(NC[C@H]1CN(c2ccc(N3CCOCC3=O)cc2)C(=O)O1)c1ccc(Cl)s1 [Rivaroxaban] | 0.54 |

These compounds were tested on PAF (Platelet activating factor) (assay: Plasma PAF content by ELISA, rabbit wound-limb deep venous thrombosis forming model). Details: 0.5 h after administration; rabbit wound-limb deep venous thrombosis model; *p<0.05, **p<0.01, ***p<0.001 vs model group.
Type: in vivo
Description: as §2, with “Eight were taken as control group and the rest were treated by a striking device. […] Specifically:” for “Specifically:”, “Found the trochanter of the left femur and set the striking head attached to area from the trochanter to the 1.5 cm below.” left out, “used. Animals were grouped after modeling. The drug was fed according to table 4 via oral gavage, once a day for 7 days continuously. At 0.5, 1.0, 2.0, 3.0 and 4.0 h after the first administration, blood was taken from ear central artery. Plasma was separated and the content of PAF was determined by ELISA.” for “used.”

| Structure (SMILES) | PAF content (x ± SD) [ng/L] |
| --- | --- |
| O=C(NC[C@H]1CN(c2ccc(N3CCOCC3=O)cc2)C(=O)O1)c1ccc(Cl)s1 [Rivaroxaban] | 886.43 ± 314.24 |

Same assay, conditions: 1 h after administration; rabbit wound-limb deep venous thrombosis model; *p<0.05, **p<0.01, ***p<0.001 vs model group

| Structure (SMILES) | PAF content (x ± SD) [ng/L] |
| --- | --- |
| CC1C(=O)OC2C(O)C34C5CC(C(C)(C)C)C36C(OC(=O)C6O)OC4(C(=O)O5)C12O (stereo not shown) [Ginkgolide B] | 1255.71 ± 300.73 |
| O=C(NC[C@H]1CN(c2ccc(N3CCOCC3=O)cc2)C(=O)O1)c1ccc(Cl)s1 [Rivaroxaban] | 1484.29 ± 129.00 |

Same assay, conditions: 2 h after administration

| Structure (SMILES) | PAF content compared to model group |
| --- | --- |
| CC1C(=O)OC2C(O)C34C5CC(C(C)(C)C)C36C(OC(=O)C6O)OC4(C(=O)O5)C12O (stereo not shown) [Ginkgolide B] | decreased significantly |

Same assay, conditions: 3 h after administration; rabbit wound-limb deep venous thrombosis model; *p<0.05, **p<0.01, ***p<0.001 vs model group

| Structure (SMILES) | PAF content (x ± SD) [ng/L] |
| --- | --- |
| CC1C(=O)OC2C(O)C34C5CC(C(C)(C)C)C36C(OC(=O)C6O)OC4(C(=O)O5)C12O (stereo not shown) [Ginkgolide B] | 1656.43 ± 259.36 |
| O=C(NC[C@H]1CN(c2ccc(N3CCOCC3=O)cc2)C(=O)O1)c1ccc(Cl)s1 [Rivaroxaban] | 1671.43 ± 236.95 |

Same assay, conditions: 4 h after administration

| Structure (SMILES) | PAF content compared to model group |
| --- | --- |
| O=C(NC[C@H]1CN(c2ccc(N3CCOCC3=O)cc2)C(=O)O1)c1ccc(Cl)s1 [Rivaroxaban] | extremely significant decrease |

Each compound was assayed on coagulation function (aPTT) (assay: aPTT of coagulation function, rabbit wound-limb deep venous thrombosis forming model). Details: 5 mg/kg i.g., 0.5 h after administration, x ± SD.
Type: in vivo
Description: as §1, §2, §3, §4

| Structure (SMILES) | aPPT [s] |
| --- | --- |
| CC1C(=O)OC2C(O)C34C5CC(C(C)(C)C)C36C(OC(=O)C6O)OC4(C(=O)O5)C12O (stereo not shown) [Ginkgolide B] | 25.89 ± 8.15 |
| O=C(NC[C@H]1CN(c2ccc(N3CCOCC3=O)cc2)C(=O)O1)c1ccc(Cl)s1 [Rivaroxaban] | 27.89 ± 7.97 |

Same assay, conditions: 5 mg/kg i.g., 1 h after administration, x ± SD

| Structure (SMILES) | aPPT [s] |
| --- | --- |
| CC1C(=O)OC2C(O)C34C5CC(C(C)(C)C)C36C(OC(=O)C6O)OC4(C(=O)O5)C12O (stereo not shown) [Ginkgolide B] | 30.65 ± 6.79 |
| O=C(NC[C@H]1CN(c2ccc(N3CCOCC3=O)cc2)C(=O)O1)c1ccc(Cl)s1 [Rivaroxaban] | 32.01 ± 9.31 |

Same assay, conditions: 5 mg/kg i.g., 2 h after administration, x ± SD

| Structure (SMILES) | aPPT [s] |
| --- | --- |
| CC1C(=O)OC2C(O)C34C5CC(C(C)(C)C)C36C(OC(=O)C6O)OC4(C(=O)O5)C12O (stereo not shown) [Ginkgolide B] | 25.83 ± 5.96 |
| O=C(NC[C@H]1CN(c2ccc(N3CCOCC3=O)cc2)C(=O)O1)c1ccc(Cl)s1 [Rivaroxaban] | 34.63 ± 5.57 |

Same assay, conditions: 5 mg/kg i.g., 3 h after administration, x ± SD

| Structure (SMILES) | aPPT [s] |
| --- | --- |
| CC1C(=O)OC2C(O)C34C5CC(C(C)(C)C)C36C(OC(=O)C6O)OC4(C(=O)O5)C12O (stereo not shown) [Ginkgolide B] | 34.30 ± 6.56 |
| O=C(NC[C@H]1CN(c2ccc(N3CCOCC3=O)cc2)C(=O)O1)c1ccc(Cl)s1 [Rivaroxaban] | 35.92 ± 10.85 |

Same assay, conditions: 5 mg/kg i.g., 4 h after administration, x ± SD

| Structure (SMILES) | aPPT [s] |
| --- | --- |
| CC1C(=O)OC2C(O)C34C5CC(C(C)(C)C)C36C(OC(=O)C6O)OC4(C(=O)O5)C12O (stereo not shown) [Ginkgolide B] | 31.92 ± 7.77 |
| O=C(NC[C@H]1CN(c2ccc(N3CCOCC3=O)cc2)C(=O)O1)c1ccc(Cl)s1 [Rivaroxaban] | 29.20 ± 6.32 |

Same assay, conditions: 1 h after administration

| Structure (SMILES) | aPTT compared with model group |
| --- | --- |
| CC1C(=O)OC2C(O)C34C5CC(C(C)(C)C)C36C(OC(=O)C6O)OC4(C(=O)O5)C12O (stereo not shown) [Ginkgolide B] | obviously extended |
| O=C(NC[C@H]1CN(c2ccc(N3CCOCC3=O)cc2)C(=O)O1)c1ccc(Cl)s1 [Rivaroxaban] | obviously extended |

The compounds below were run on coagulation function (PT) (assay: PT of coagulation function, rabbit wound-limb deep venous thrombosis forming model). Details: 5 mg/kg i.g., 0.5 h after administration, x ± SD.
Type: in vivo
Description: as §1, §2, §3, §4

| Structure (SMILES) | PT [s] |
| --- | --- |
| CC1C(=O)OC2C(O)C34C5CC(C(C)(C)C)C36C(OC(=O)C6O)OC4(C(=O)O5)C12O (stereo not shown) [Ginkgolide B] | 6.76 ± 0.32 |
| O=C(NC[C@H]1CN(c2ccc(N3CCOCC3=O)cc2)C(=O)O1)c1ccc(Cl)s1 [Rivaroxaban] | 6.76 ± 0.30 |

Same assay, conditions: 5 mg/kg i.g., 1 h after administration, x ± SD

| Structure (SMILES) | PT [s] |
| --- | --- |
| CC1C(=O)OC2C(O)C34C5CC(C(C)(C)C)C36C(OC(=O)C6O)OC4(C(=O)O5)C12O (stereo not shown) [Ginkgolide B] | 6.79 ± 0.27 |
| O=C(NC[C@H]1CN(c2ccc(N3CCOCC3=O)cc2)C(=O)O1)c1ccc(Cl)s1 [Rivaroxaban] | 7.20 ± 0.96 |

Same assay, conditions: 5 mg/kg i.g., 2 h after administration, x ± SD

| Structure (SMILES) | PT [s] |
| --- | --- |
| CC1C(=O)OC2C(O)C34C5CC(C(C)(C)C)C36C(OC(=O)C6O)OC4(C(=O)O5)C12O (stereo not shown) [Ginkgolide B] | 6.75 ± 0.36 |
| O=C(NC[C@H]1CN(c2ccc(N3CCOCC3=O)cc2)C(=O)O1)c1ccc(Cl)s1 [Rivaroxaban] | 6.90 ± 0.34 |

Same assay, conditions: 5 mg/kg i.g., 3 h after administration, x ± SD

| Structure (SMILES) | PT [s] |
| --- | --- |
| CC1C(=O)OC2C(O)C34C5CC(C(C)(C)C)C36C(OC(=O)C6O)OC4(C(=O)O5)C12O (stereo not shown) [Ginkgolide B] | 6.72 ± 0.24 |
| O=C(NC[C@H]1CN(c2ccc(N3CCOCC3=O)cc2)C(=O)O1)c1ccc(Cl)s1 [Rivaroxaban] | 6.81 ± 0.22 |

Same assay, conditions: 5 mg/kg i.g., 4 h after administration, x ± SD

| Structure (SMILES) | PT [s] |
| --- | --- |
| CC1C(=O)OC2C(O)C34C5CC(C(C)(C)C)C36C(OC(=O)C6O)OC4(C(=O)O5)C12O (stereo not shown) [Ginkgolide B] | 6.68 ± 0.23 |
| O=C(NC[C@H]1CN(c2ccc(N3CCOCC3=O)cc2)C(=O)O1)c1ccc(Cl)s1 [Rivaroxaban] | 6.70 ± 0.33 |
